From patent publication US9657057B2, “Dipeptide and tripeptide epoxy ketone protease inhibitors” (Onyx Therapeutics, Inc., priority 2013, dated 2017)
Converted amounts (≈) assume the structure as drawn.

Tests used:
LMP7 = biological target: T1, LMP7 (Homo sapiens, UniProt P20618+P28062); assay: ProCISE proteasome subunit assay, LMP7; type: biochemical; conditions: MOLT4 lysate Hu 1 h
T1 construct: endogenous in cells; host or cells: MOLT-4
Experimental: (§1) This assay was used to assess the inhibitory activity against each of LMP2, LMP7, MECL1, β1, β2, and β5. Briefly, test compounds were serially diluted in DMSO at 100× concentration, then diluted to 10× in aqueous hypotonic lysis buffer. Lysate from the human acute lymphoblastic leukemia cell line, MOLT-4, was treated for 1 hour at 25° C. with compound at a final 1× concentration. […] Following this, lysate was denatured in guanidine hydrochloride, and subunits bound to probe were isolated with streptavidin-conjugated sepharose beads. Individual subunits were probed with subunit-specific primary antibodies, followed by HRP-conjugated secondary antibodies. A chemiluminescent substrate was used to generate signal associated with HRP binding, which was detected on a plate reader. Luminescent signal was normalized to protein content, then, percent activity calculated relative to DMSO-treated controls to generate IC50 curves.

β5 = biological target: T2, β5 (Homo sapiens, UniProt P20618+P28074); assay: ProCISE proteasome subunit assay, β5; type: biochemical; conditions: MOLT4 lysate Hu 1 h
T2 construct: endogenous in cells; host or cells: MOLT-4
Experimental: as §1

[1] = biological target: i20S (20S immunoproteasome) (Homo sapiens, UniProt P20618+P28062); assay: 20S proteasome assay, chymotrypsin-like activity (LLVY), i20S; type: biochemical; conditions: LLVY i20S Hu 1 h CONT: IC50 (nM), succinyl-Leu-Leu-Val-Tyr-AMC
Description: (§2) Assay buffer consisted of TE buffer [20 mmol/L Tris (pH 8.0), 0.5 mmol/L EDTA] with (20S) or without (cell lysate) 0.03% SDS. Reactions were initiated by enzyme or lysate addition and monitored for AMC product formation at 27jC with a plate-based spectofluorometer (Tecan).

[2] = biological target: c20S (constitutive 20S proteasome) (Homo sapiens, UniProt P20618+P28074); assay: 20S proteasome assay, chymotrypsin-like activity (LLVY), c20S; type: biochemical; conditions: LLVY c20S Hu 1 h CONT: IC50 (nM), succinyl-Leu-Leu-Val-Tyr-AMC
Description: as §2

Solubility pH 7 = type: physicochemical; conditions: pH 7, aqueous buffer

Row | IC50 (LMP7) [nM] | IC50 (β5) [nM] | IC50 [1] [nM] | IC50 [2] [nM] | solubility (Solubility pH 7) [µg/mL] | SMILES
1 | 34.4 | 180 | 6.1 | 29 |  | COc1ccc(C[C@H](NC(=O)[C@H](C)NC(=O)C(C)(F)F)C(=O)N[C@@H](Cc2ccccc2)C(=O)[C@@]2(C)CO2)cc1 [Compound C-2006]
2 | 211 | 478 | 118 | 432 | 728 (≈ 1420 µM) | COc1ccc(C[C@H](NC(=O)[C@H](CO)NC(C)=O)C(=O)N[C@@H](Cc2ccccc2)C(=O)[C@@]2(C)CO2)cc1 [Compound C-2007, (S)-2-acetamido-3-hydroxy-N—((S)-3-(4-methoxyphenyl)-1-(((S)-1-((R)-2-methyloxiran-2-yl)-1-oxo-3-phenylpropan-2-yl)amino)-1-oxopropan-2-yl)propanamide]
3 | 97.1 | 342 | 13.5 | 68.6 |  | COc1ccc(C[C@H](NC(=O)[C@H](C)NC(=O)C(F)(F)F)C(=O)N[C@@H](Cc2ccccc2)C(=O)[C@@]2(C)CO2)cc1 [Compound C-2011, (S)-3-(4-Methoxyphenyl)-N—((S)-1-((R)-2-methyloxiran-2-yl)-1-oxo-3-phenylpropan-2-yl)-2-((S)-2-(2,2,2-trifluoroacetamido)propanamido)propanamide]
4 | 66.7 | 359 | 40.2 | 117 | 725 (≈ 1270 µM) | COCOCCC(=O)N[C@@H](C)C(=O)N[C@@H](Cc1ccc(OC)cc1)C(=O)N[C@@H](Cc1ccccc1)C(=O)[C@@]1(C)CO1 [Compound C-2013, (S)-2-((S)-2-(3-(methoxymethoxy)propanamido)propanamido)-3-(4-methoxyphenyl)-N—((S)-1-((R)-2-methyloxiran-2-yl)-1-oxo-3-phenylpropan-2-yl)propanamide]
5 | 56.4 | 372 | 16.6 | 45.7 |  | COc1ccc(C[C@H](NC(=O)[C@H](C)NC(=O)Cc2cc(C)no2)C(=O)N[C@@H](CC2CCCC2)C(=O)[C@@]2(C)CO2)cc1 [Compound C-2014, (S)—N—((S)-3-cyclopentyl-1-((R)-2-methyloxiran-2-yl)-1-oxopropan-2-yl)-3-(4-methoxyphenyl)-2-((S)-2-(2-(3-methylisoxazol-5-yl)acetamido)propanamido)propanamide]
6 | 3060 | 30400 | 2920 | 18600 | 169 (≈ 298 µM) | COc1ccc(C[C@H](NC(=O)[C@@H](C)NC(=O)Cc2cc(C)no2)C(=O)N[C@@H](CC2CCCC2)C(=O)[C@@]2(C)CO2)cc1 [Compound C-2015, (S)—N—((S)-3-cyclopentyl-1-((R)-2-methyloxiran-2-yl)-1-oxopropan-2-yl)-3-(4-methoxyphenyl)-2-((R)-2-(2-(3-methylisoxazol-5-yl)acetamido)propanamido)propanamide]
7 | 1180 | 34900 | 570 | 12800 | 129 (≈ 243 µM) | COCCC(=O)N[C@H](C)C(=O)N[C@@H](Cc1ccc(OC)cc1)C(=O)N[C@@H](CC1CCCC1)C(=O)[C@@]1(C)CO1 [Compound C-2018, (S)—N—((S)-3-cyclopentyl-1-((R)-2-methyloxiran-2-yl)-1-oxopropan-2-yl)-3-(4-methoxyphenyl)-2-((R)-2-(3-methoxypropanamido)propanamido)propanamide]
8 | 1890 | 30800 | 1220 | 99000 | 103 (≈ 193 µM) | CCOCC(=O)N[C@H](C)C(=O)N[C@@H](Cc1ccc(OC)cc1)C(=O)N[C@@H](CC1CCCC1)C(=O)[C@@]1(C)CO1 [Compound C-2021, (S)—N—((S)-3-cyclopentyl-1-((R)-2-methyloxiran-2-yl)-1-oxopropan-2-yl)-2-((R)-2-(2-ethoxyacetamido)propanamido)-3-(4-methoxyphenyl)propanamide]
9 | 195 | 429 | 23.5 | 65.3 | 84.7 (≈ 153 µM) | COc1ccc(C[C@H](NC(=O)[C@H](C)NC(=O)c2cc(C)no2)C(=O)N[C@@H](CC2CCCC2)C(=O)[C@@]2(C)CO2)cc1 [Compound C-2022, N—((S)-1-(((S)-1-(((S)-3-cyclopentyl-1-((R)-2-methyloxiran-2-yl)-1-oxopropan-2-yl)amino)-3-(4-methoxyphenyl)-1-oxopropan-2-yl)amino)-1-oxopropan-2-yl)-3-methylisoxazole-5-carboxamide]
10 | 318 | 2690 | 55.3 | 857 | 100 (≈ 181 µM) | COc1ccc(C[C@H](NC(=O)[C@@H](C)NC(=O)c2cc(C)no2)C(=O)N[C@@H](CC2CCCC2)C(=O)[C@@]2(C)CO2)cc1 [Compound C-2023, N—((R)-1-(((S)-1-(((S)-3-cyclopentyl-1-((R)-2-methyloxiran-2-yl)-1-oxopropan-2-yl)amino)-3-(4-methoxyphenyl)-1-oxopropan-2-yl)amino)-1-oxopropan-2-yl)-3-methylisoxazole-5-carboxamide]
11 | 170 | 3450 | 64.6 | 1360 | 126 (≈ 221 µM) | COc1ccc(C[C@H](NC(=O)[C@@H](C)NC(=O)c2cnc(C)s2)C(=O)N[C@@H](CC2CCCC2)C(=O)[C@@]2(C)CO2)cc1 [Compound C-2026, N—((R)-1-(((S)-1-(((S)-3-cyclopentyl-1-((R)-2-methyloxiran-2-yl)-1-oxopropan-2-yl)amino)-3-(4-methoxyphenyl)-1-oxopropan-2-yl)amino)-1-oxopropan-2-yl)-2-methylthiazole-5-carboxamide]
12 | 618 | 3600 | 470 | 2130 | 753 (≈ 1380 µM) | COc1ccc(C[C@H](NC(=O)[C@H](C)NC(=O)CC(C)(C)O)C(=O)N[C@@H](CC2CCCC2)C(=O)[C@@]2(C)CO2)cc1 [Compound C-2027, N—((S)-1-(((S)-1-(((S)-3-cyclopentyl-1-((R)-2-methyloxiran-2-yl)-1-oxopropan-2-yl)amino)-3-(4-methoxyphenyl)-1-oxopropan-2-yl)amino)-1-oxopropan-2-yl)-3-hydroxy-3-methylbutanamide]
13 |  |  | 5.2 | 7.9 | 10.7 (≈ 17 µM) | COc1ccc(C[C@H](NC(=O)[C@@H](NC(=O)OCc2ccccc2)C2(O)CC2)C(=O)N[C@@H](Cc2ccccc2)C(=O)[C@@]2(C)CO2)cc1 [Compound C-2046, Benzyl ((S)-1-(1-hydroxycyclopropyl)-2-(((S)-3-(4-methoxyphenyl)-1-(((S)-1-((R)-2-methyloxiran-2-yl)-1-oxo-3-phenylpropan-2-yl)amino)-1-oxopropan-2-yl)amino)-2-oxoethyl)carbamate]
14 |  |  | 4550 | 3320 | 1230 (≈ 2420 µM) | COc1ccc(C[C@H](NC(=O)[C@]2(C)CCC(=O)N2)C(=O)N[C@@H](Cc2ccccc2)C(=O)[C@@]2(C)CO2)cc1 [Compound C-3011, (S)—N—((S)-3-(4-methoxyphenyl)-1-(((S)-1-((R)-2-methyloxiran-2-yl)-1-oxo-3-phenylpropan-2-yl)amino)-1-oxopropan-2-yl)-2-methyl-5-oxopyrrolidine-2-carboxamide]
